Reference: patent US20230357064A1, “ENZYME BOOSTER TECHNOLOGY FOR ADVANCED DECONTAMINATION OF PETROLEUM HYDROCARBONS” (priority 2022, published 2023)
≈ marks a conversion by molar mass, not a printed value.

Experiment: Silicone O-ring passive dosing: dissolved concentrations, partitioning, losses and release in MSM
Details: for solubility: 15 °C, aqueous buffer
Experimental: It is very important to control the freely dissolved PAH concentration and keep it unchanged throughout the experiment by equilibrium partitioning from the silicone. […] During the loading of PAHs, individual PAHs were dissolved in methanol (loading solvent) to saturation level. To create the PAHs mixture, the concentration in the loading solution was calculated using partitioning coefficients for each PAH from Gilbert et. al. (2015).^39 Then, cleaned and dried O-rings were added to 50 mL volumes of loading solution kept at 15±1° C. A criterion for successful application of the passive dosing system was ensuring the mass of PAHs dissolved into methanol was much greater than that partitioned into the silicon O-ring which in turn was greater than that partitioned into the MSM^37. After 24, 72 and 128 h, O-ring was removed from each loading batch, and they were transferred into MSM to measure O-ring (Crest) and freely dissolved concentration of each PAH (Cfree) at 0.33, 0.66, 1.33, 2.66, 5.33, 12, 24,48, and 72 h. The partition coefficient between different phases (KMethanol:Oring and KOring:MSM) were obtained using the measured Ctest,initial and Cfree, initial. The obtained partitioning coefficient (KOring:MSM) was applied to calculate the required O-ring volume to avoid depletion (<5%) using the following Equation: […]
With a 5 mL MSM and partitioning coefficients from Table 10, the O-ring volume needed for each PAH and PAH mixture were determined. The initial concentrations of freely dissolved PAHs (Cfree initial) and O-ring concentrations (Ctest) in medium samples were calculated via the approach published by Butler et. al (2013).^37 Finally, for the determination of the losses, freely dissolved concentrations of PAHs were directly measured in medium samples to compare with calculated Cfree initial.
Two controls were included to study biodegradation versus dissolved concentrations. The first control contained 5 mL of strain inoculating suspension in passive doing vials with O-rings to account for losses through volatilization. The second control contained 5 mL of MSM without any strain in passive dosing vials in the presence of O-ring loaded with PAHs to account for losses through […].

## c1ccc2cc3ccccc3cc2c1 [Anthracene]
  solubility: 3.11 µg/mL (≈ 17.4 µM)
MSM
  Cfree (dissolved concentration measured in MSM): 2.66 mg/L
  Cfree initial (freely dissolved concentration): 2.98 mg/L
Control 1, passive dosing vials
  losses through volatilization: 4%
Silicone O-ring
  Ctest initial (O-ring concentration): 94.1 mg/L

## c1ccc2ccccc2c1 [Naphthalene]
  Cfree (dissolved concentration measured in MSM): 17.73 mg/L
  Cfree initial (freely dissolved concentration): 18.31 mg/L
  Ctest initial (O-ring concentration): 97.8 mg/L
  losses through volatilization: 19%
  time after which water concentration decreased due to volatility: about 4 h
  solubility: 20.5 µg/mL (≈ 160 µM)

## c1ccc2c(c1)ccc1ccccc12 [Phenanthrene]
  Cfree (dissolved concentration measured in MSM): 0.91 mg/L
  Cfree initial (freely dissolved concentration): 1.01 mg/L
  Ctest initial (O-ring concentration): 48.6 mg/L
  losses through volatilization: 0%
  solubility: 1.04 µg/mL (≈ 5.84 µM)
